Data: patent US20120225862A1, “HETEROARYL BENZAMIDES, COMPOSITIONS AND METHODS OF USE” (AUCKLAND UNIVSERVICES LIMITED, priority 2009, published 2012)

Experiments:
RCC4/VHL [1] = test: Clonogenic survival, RCC4/VHL; format: cell-based, human; conditions: RCC4/VHL (wild-type VHL), 5 μM, 10 days
Method: Three hundred cells were plated into 60-mm tissue culture dishes in DMEM. The next day, cells were treated with vehicle or drug and were further incubated for an additional 10 days. After 10 days, the media was removed and colonies were fixed and stained in 95% ethanol and 0.1% crystal violet for 15 minutes. The stain was removed and plates were washed in deionized water. Colonies were quantified. All conditions were measured in triplicate and all experiments were performed in triplicate.
For 2,3-bis[2-methoxy-4-nitro-5-sulfophenyl]-2H-tetrazolium-5-carboxanilide (XTT) assays, five thousand cells were plated in 96-well plates. The next day, vehicle (DMSO) or drug was added by serial dilution. Four days later, media were aspirated, XTT solution (0.3 mg/ml of XTT (Sigma), 2.65 mg/ml N-methyl dibenxopyrazine methyl sulfate (Simga) in phenol red-free media) was added, and the plates were incubated at 37° C. for 1-2 hours. Metabolism of XTT was quantified by measuring the absorbance at 450 nm. IC50s were calculated using linear interpolation. For clonogenic survival assays, three hundred cells were plated per 60 mm tissue culture dish. The cells were allowed to attach overnight and then treated with vehicle or drug for 14 days. […] All conditions were measured in triplicate and each experiment was done in duplicate or triplicate. […] Live and dead cells were counted on a hematocytometer.

cSRC = target: T1, cSRC (Homo sapiens, UniProt P12931); test: In vitro kinase activity (Millipore KinaseProfiler): cSRC; format: biochemical; conditions: no head or unit printed
T1 construct: purchased Millipore (KinaseProfiler service)
Method: (§1) All cells were grown in DMEM+10% FCS. ACHN and ACHN shVHL were a kind gift from George V. Thomas (UCLA). HIF overexpressing clones were described previously. Transfection of RNA oligos were performed with DnarmaFECT Reagent 1 (Dharmcon), according to manufacturer's directions. ON-TARGETplus SMART pools against HIF-1β/ARNT were purchased from Dharmacon. Glut1 was detected with anti-GLUT1 antibody from NeoMarkers/LabVision/Fisher. Pyruvate/lactate levels and hexokinase activity were both measured by fluorometric assay (BioVision and Sigma-Aldrich, respectively). ATP levels were measured by bioluminescence assay (ATP Determination Kit from Molecular Probes/Invitrogen). In vitro kinase activities were performed by Millipore KinaseProfiler. Affi-Gel 10 (BioRad) activated affinity media was coupled to analogs to generate immobilized affinity linkers.
(§2) We next wanted to investigate the differential glucose uptake between RCCs with and without VHL treated with compound 47 that subsequently lead to the selective death of VHL-deficient cells. We first examined the message levels of the two main glucose transporters, GLUT1 and GLUT2 by quantitative real-time PCR. GLUT1 is an inducible, high-affinity glucose transporter, while GLUT2 is the glucose transporter responsible for basal glucose uptake. […] Cells deficient in VHL had very low levels of GLUT2 that could barely be detected (FIG. 3J). […]

786-O = test: 3H-2-deoxyglucose uptake, 786-O; format: cell-based, human; conditions: 5 μM, FIG. 8B
Method: One hundred thousand cells were plated into 6-well plates. The following day, the cells were treated with vehicle or drug and incubated for the indicated time. Cells were washed twice in phosphate buffered saline and low glucose media was added for 30 minutes. Cells were then incubated with 0.5 microCi of tritiated-2-deoxyglucose and incubated for an hour at 37° C. Cells were washed twice in PBS and then lysed in 0.2 N NaOH and 0.2% SDS. Lysates were transferred to scintillation tubes with scintillation fluid and quantified by scintillation counter.
One hundred thousand cells were plated per well in a six-well plate. The next day, cells were treated with the indicated concentration of drug and incubated for the indicated time. Cells were then washed twice with phosphate-buffered saline, incubated in low-glucose medium for 30 minutes, and ^3H-2-deoxyglucose (0.5 μCi) was added in 1 ml of glucose-free media for an additional hour. Cells were washed twice in PBS and lysed (0.2 N NaOH and 0.2% sodium dodecyl sulfate). Glucose uptake was quantified with a scintillation counter.

hexokinase = test: Hexokinase activity in whole cell lysates, RCC4; format: cell-based, human; conditions: 5 μM
Method: as §1
We then examined whether this decrease in glycolysis in response to compound 47 was due to a decrease in glucose uptake or whether compound 47 inhibited a particular glycolytic enzyme. To test this, we measured glucose uptake using 2-deoxy-D-[^3H] glucose, a non-hydrolyzable, radioactive glucose analog, following two days of treatment with compound 47. […] RCC4/VHL cells had lower baseline levels of glucose uptake compared to RCC4 cells and were unaffected by treatment with compound 47. […]

RCC4 = test: Necrotic cell death by trypan blue, RCC4; format: cell-based, human; conditions: 3 days, 5 μM, FIG. 2F
Method: (§3) For 2,3-bis[2-methoxy-4-nitro-5-sulfophenyl]-2H-tetrazolium-5-carboxanilide (XTT) assays, five thousand cells were plated in 96-well plates. The next day, vehicle (DMSO) or drug was added by serial dilution. Four days later, media were aspirated, XTT solution (0.3 mg/ml of XTT (Sigma), 2.65 mg/ml N-methyl dibenxopyrazine methyl sulfate (Simga) in phenol red-free media) was added, and the plates were incubated at 37° C. for 1-2 hours. Metabolism of XTT was quantified by measuring the absorbance at 450 nm. IC50s were calculated using linear interpolation. For clonogenic survival assays, three hundred cells were plated per 60 mm tissue culture dish. The cells were allowed to attach overnight and then treated with vehicle or drug for 14 days. Colonies were fixed and stained with crystal violet (0.1% crystal violet in 95% ethanol). All conditions were measured in triplicate and each experiment was done in duplicate or triplicate. To determine necrosis, cells were treated with drug for a given time point. Media and cells were collected, centrifugated, and resuspended in 0.4% trypan blue (Invitrogen). Live and dead cells were counted on a hematocytometer.

RCC4/VHL [2] = test: Necrotic cell death by trypan blue, RCC4/VHL; format: cell-based, human; conditions: 3 days, 5 μM, FIG. 2F
Method: as §3

Plk3 = target: T2, Plk3 (Homo sapiens, UniProt Q9H4B4); test: In vitro kinase activity (Millipore KinaseProfiler): Plk3; format: biochemical; conditions: no head or unit printed
T2 construct: purchased Millipore (KinaseProfiler service)
Method: as §1, §2

Met = target: T3, Met (Homo sapiens, UniProt P08581); test: In vitro kinase activity (Millipore KinaseProfiler): Met; format: biochemical; conditions: no head or unit printed
T3 construct: purchased Millipore (KinaseProfiler service)
Method: as §1, §2

T2 sequence (Q9H4B4 whole entry, species assumed): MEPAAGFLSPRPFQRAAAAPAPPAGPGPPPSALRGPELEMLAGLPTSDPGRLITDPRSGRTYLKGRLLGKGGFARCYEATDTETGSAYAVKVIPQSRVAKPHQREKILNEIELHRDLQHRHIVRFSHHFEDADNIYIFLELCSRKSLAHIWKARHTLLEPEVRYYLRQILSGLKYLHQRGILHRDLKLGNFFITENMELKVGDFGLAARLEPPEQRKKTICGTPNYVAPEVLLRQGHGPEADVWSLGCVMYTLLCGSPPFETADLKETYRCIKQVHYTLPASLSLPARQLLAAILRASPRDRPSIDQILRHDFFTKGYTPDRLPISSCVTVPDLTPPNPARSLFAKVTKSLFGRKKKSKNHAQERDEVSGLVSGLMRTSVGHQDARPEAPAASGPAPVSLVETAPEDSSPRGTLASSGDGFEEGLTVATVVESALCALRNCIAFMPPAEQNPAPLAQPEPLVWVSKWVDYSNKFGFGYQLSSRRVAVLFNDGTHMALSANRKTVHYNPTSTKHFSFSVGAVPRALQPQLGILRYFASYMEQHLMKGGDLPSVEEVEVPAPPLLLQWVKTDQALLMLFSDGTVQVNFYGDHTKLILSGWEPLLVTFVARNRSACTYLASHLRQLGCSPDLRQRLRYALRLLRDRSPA
T1 sequence (P12931 whole entry, species assumed): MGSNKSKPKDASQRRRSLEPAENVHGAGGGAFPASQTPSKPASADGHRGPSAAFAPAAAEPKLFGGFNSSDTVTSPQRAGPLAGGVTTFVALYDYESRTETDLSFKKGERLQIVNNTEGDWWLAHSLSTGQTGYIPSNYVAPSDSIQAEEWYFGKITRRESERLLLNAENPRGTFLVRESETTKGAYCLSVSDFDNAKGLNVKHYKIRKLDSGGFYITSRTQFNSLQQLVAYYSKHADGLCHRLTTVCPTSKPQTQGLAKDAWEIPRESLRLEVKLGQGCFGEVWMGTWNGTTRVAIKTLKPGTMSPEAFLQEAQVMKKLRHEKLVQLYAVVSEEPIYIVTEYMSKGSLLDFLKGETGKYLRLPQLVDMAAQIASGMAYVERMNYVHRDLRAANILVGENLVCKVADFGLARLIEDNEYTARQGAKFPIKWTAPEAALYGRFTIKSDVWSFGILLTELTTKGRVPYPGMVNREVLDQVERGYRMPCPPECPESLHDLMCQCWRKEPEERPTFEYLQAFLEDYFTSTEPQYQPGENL
T3 sequence (P08581 25-1390): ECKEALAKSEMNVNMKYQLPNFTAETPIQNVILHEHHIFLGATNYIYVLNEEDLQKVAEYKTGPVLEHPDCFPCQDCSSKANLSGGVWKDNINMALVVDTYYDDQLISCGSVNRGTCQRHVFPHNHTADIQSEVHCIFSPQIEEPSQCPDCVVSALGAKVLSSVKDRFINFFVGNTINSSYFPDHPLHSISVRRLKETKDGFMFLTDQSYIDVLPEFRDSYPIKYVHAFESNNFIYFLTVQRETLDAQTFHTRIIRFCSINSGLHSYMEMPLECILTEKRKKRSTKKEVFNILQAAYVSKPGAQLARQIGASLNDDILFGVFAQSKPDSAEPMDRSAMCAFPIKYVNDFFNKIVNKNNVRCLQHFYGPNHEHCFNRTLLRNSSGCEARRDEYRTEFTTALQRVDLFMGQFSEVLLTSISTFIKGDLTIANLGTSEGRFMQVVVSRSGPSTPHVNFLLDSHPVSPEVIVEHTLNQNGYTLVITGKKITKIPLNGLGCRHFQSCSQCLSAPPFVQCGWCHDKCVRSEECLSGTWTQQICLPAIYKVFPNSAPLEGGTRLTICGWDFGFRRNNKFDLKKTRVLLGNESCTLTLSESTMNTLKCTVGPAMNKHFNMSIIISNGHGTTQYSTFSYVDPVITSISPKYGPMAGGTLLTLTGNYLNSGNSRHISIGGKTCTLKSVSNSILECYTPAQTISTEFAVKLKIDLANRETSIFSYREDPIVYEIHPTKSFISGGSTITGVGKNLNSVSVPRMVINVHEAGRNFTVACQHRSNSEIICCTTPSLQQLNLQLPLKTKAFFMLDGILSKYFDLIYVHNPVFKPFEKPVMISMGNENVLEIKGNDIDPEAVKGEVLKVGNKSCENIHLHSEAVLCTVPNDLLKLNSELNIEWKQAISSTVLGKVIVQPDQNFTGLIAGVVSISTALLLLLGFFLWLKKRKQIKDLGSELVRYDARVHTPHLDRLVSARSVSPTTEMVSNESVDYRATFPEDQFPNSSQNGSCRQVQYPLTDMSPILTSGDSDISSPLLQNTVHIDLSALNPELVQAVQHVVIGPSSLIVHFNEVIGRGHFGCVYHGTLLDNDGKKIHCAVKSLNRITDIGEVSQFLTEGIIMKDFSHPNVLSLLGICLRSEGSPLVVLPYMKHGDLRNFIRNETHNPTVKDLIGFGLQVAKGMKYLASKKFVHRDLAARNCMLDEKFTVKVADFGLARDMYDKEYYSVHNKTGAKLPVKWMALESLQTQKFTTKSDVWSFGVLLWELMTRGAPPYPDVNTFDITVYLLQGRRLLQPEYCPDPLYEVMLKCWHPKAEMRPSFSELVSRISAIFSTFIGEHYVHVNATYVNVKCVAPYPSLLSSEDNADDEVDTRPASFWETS

## CC(C)(C)c1ccc(S(=O)(=O)NCc2ccc(C(=O)Nc3cccnc3)cc2)cc1 [Example 38, 4-((4-tert-Butylphenylsulfonamido)methyl)-N-(pyridin-3-yl)benzamide]
RCC4/VHL [1]
  clonogenic survival of RCC4/VHL: relatively unaffected
cSRC
  cSRC kinase activity: 104%
786-O
  glucose uptake in 786-O cells: impaired glucose uptake
hexokinase
  hexokinase activity in RCC4: inhibited by compound 47 only after three days of treatment
RCC4
  RCC4 cells exhibiting necrotic cell death: greater than 80%
RCC4/VHL [2]
  necrotic cell death in RCC4/VHL: relatively insensitive
Plk3
  Plk3 kinase activity: 104
Met
  Met kinase activity: 105
